# Assay results reported in ChEMBL document CHEMBL3885861, “Open TG-GATES”.
# Organism: Rattus norvegicus
# Test: Open TG-GATES - Regimen: Daily Repeat
# Assay type: toxicity, organism-based, Sprague-Dawley
# Design: regimen Daily Repeat, gender Male, age 6 weeks
# Settings: in vivo, po, route gavage; for TG / TP / gamma-GTP / ALP / ALT / AST / BUN / CRE / Ca / Cl / DBIL / GLC / IP / K / LDH / Na / PL / RALB / TBIL / TC: tissue Plasma; for APTT / Bas / Eos / Fbg / Ht / Lym / MCH / MCHC / MCV / Mono / PT / Plat / RBC / Ret / WBC / Hb / Neu: tissue Blood; for KIDNEY_L / KIDNEY_R / KIDNEY_TOTAL: tissue Kidney; for LIVER: tissue Liver
# [1] = 0 mg/kg, […], dose level Control, time 28 day
# [2] = 100 mg/kg, 72 h, dose level Low, time 3 day
# [3] = 100 mg/kg, […], dose level Low, time 7 day
# [4] = 100 mg/kg, […], dose level Low, time 14 day
# [5] = 100 mg/kg, […], dose level Low, time 28 day
smiles,measurement,setting,value
CCOc1ccc(NC(C)=O)cc1 [PHENACETIN],TG,[1],162.4 mg/dL
same,TP,[1],6.4 g/dL
same,gamma-GTP,[1],1 IU/L
same,TERMINAL_BW,[2],232.8 g
same,APTT,[2],20.2 s
same,Bas,[2],0%
same,Eos,[2],1.2%
same,Fbg,[2],290.4 mg/dL
same,Ht,[2],41.7%
same,Lym,[2],76.8%
same,MCH,[2],20.4 pg
same,MCHC,[2],33%
same,MCV,[2],61.8 fL
same,Mono,[2],2.6%
same,PT,[2],13.4 s
same,Plat,[2],116.5 x10_4/uL
same,RBC,[2],676.4 x10_4/ul
same,Ret,[2],5.2%
same,WBC,[2],101.2 x10_2/uL
same,KIDNEY_L,[2],1 g
same,KIDNEY_R,[2],1 g
same,KIDNEY_TOTAL,[2],2.1 g
same,LIVER,[2],10.9 g
same,ALP,[2],1708.4 IU/L
same,ALT,[2],40 IU/L
same,AST,[2],70.4 IU/L
same,BUN,[2],13 mg/dL
same,CRE,[2],0.2 mg/dL
same,Ca,[2],11.2 mg/dL
same,Cl,[2],105.8 meq/L
same,DBIL,[2],0.006 mg/dL
same,GLC,[2],172.8 mg/dL
same,IP,[2],6.8 mg/dL
same,K,[2],4.2 meq/L
same,LDH,[2],148 IU/L
same,Na,[2],143.4 meq/L
same,PL,[2],158.8 mg/dL
same,RALB,[2],2.7 g/dL
same,TBIL,[2],0.04 mg/dL
same,TC,[2],77 mg/dL
same,TG,[2],110.6 mg/dL
same,TP,[2],5.8 g/dL
same,gamma-GTP,[2],1.2 IU/L
same,TERMINAL_BW,[3],270.6 g
same,TERMINAL_BW,[4],323.2 g
same,TERMINAL_BW,[5],411.2 g
same,APTT,[3],16.8 s
same,Bas,[3],0%
same,Eos,[3],1.2%
same,Fbg,[3],298.2 mg/dL
same,Hb,[3],14.1 g/dL
same,Ht,[3],42%
same,Lym,[3],78.2%
same,MCHC,[3],33.7%
same,MCV,[3],60.3 fL
same,Mono,[3],2%
same,Neu,[3],18%
same,PT,[3],13.4 s
same,Plat,[3],123.3 x10_4/uL
same,RBC,[3],696.4 x10_4/ul
same,Ret,[3],5.6%
same,WBC,[3],96.3 x10_2/uL
same,APTT,[4],17.8 s
same,Bas,[4],0.4%
same,Eos,[4],0.8%
same,Fbg,[4],292.4 mg/dL
same,Ht,[4],43.4%
same,Lym,[4],79.8%
same,MCH,[4],19.9 pg
same,MCHC,[4],34%
same,MCV,[4],58.5 fL
same,Mono,[4],2%
same,Neu,[4],16.6%
same,PT,[4],13.3 s
same,Plat,[4],118.2 x10_4/uL
same,RBC,[4],740.8 x10_4/ul
same,Ret,[4],4.1%
same,WBC,[4],112.5 x10_2/uL
same,APTT,[5],18.4 s
same,Bas,[5],0%
same,Eos,[5],1.6%
same,Fbg,[5],278.8 mg/dL
same,Hb,[5],15 g/dL
same,Ht,[5],43.8%
same,MCH,[5],19 pg
same,MCHC,[5],34.3%
same,MCV,[5],55.3 fL
same,Mono,[5],2.4%
same,Plat,[5],122.4 x10_4/uL
same,RBC,[5],792.8 x10_4/ul
same,Ret,[5],3%
same,WBC,[5],92.4 x10_2/uL
same,KIDNEY_L,[3],1.1 g
same,KIDNEY_R,[3],1.1 g
same,KIDNEY_TOTAL,[3],2.3 g
same,KIDNEY_L,[4],1.2 g
same,KIDNEY_R,[4],1.2 g
same,KIDNEY_TOTAL,[4],2.5 g
same,KIDNEY_L,[5],1.4 g
same,KIDNEY_R,[5],1.4 g
same,KIDNEY_TOTAL,[5],2.8 g
same,LIVER,[3],12.8 g
same,LIVER,[4],13.9 g
same,LIVER,[5],16.4 g
same,ALP,[3],1550.8 IU/L
same,BUN,[3],15.4 mg/dL
same,CRE,[3],0.2 mg/dL
same,Ca,[3],11.2 mg/dL
same,Cl,[3],104.8 meq/L
same,DBIL,[3],0.006 mg/dL
same,GLC,[3],186 mg/dL
same,IP,[3],6.9 mg/dL
same,K,[3],4.3 meq/L
same,LDH,[3],79.4 IU/L
same,Na,[3],143.4 meq/L
same,PL,[3],165.2 mg/dL
same,RALB,[3],2.7 g/dL
same,TBIL,[3],0.044 mg/dL
same,TG,[3],152 mg/dL
same,TP,[3],6 g/dL
same,gamma-GTP,[3],1 IU/L
same,ALP,[4],1582 IU/L
same,ALT,[4],39.4 IU/L
same,AST,[4],66.4 IU/L
same,CRE,[4],0.2 mg/dL
same,Ca,[4],10.9 mg/dL
same,Cl,[4],106 meq/L
same,DBIL,[4],0.022 mg/dL
same,GLC,[4],184.2 mg/dL
same,IP,[4],6.7 mg/dL
same,K,[4],4.2 meq/L
same,LDH,[4],118.6 IU/L
same,Na,[4],143.4 meq/L
same,PL,[4],162 mg/dL
same,RALB,[4],2.7 g/dL
same,TBIL,[4],0.062 mg/dL
same,TC,[4],73.8 mg/dL
same,TG,[4],157 mg/dL
same,TP,[4],6 g/dL
same,gamma-GTP,[4],1.2 IU/L
same,ALP,[5],1231.2 IU/L
same,ALT,[5],35.8 IU/L
same,AST,[5],60.8 IU/L
same,BUN,[5],15.6 mg/dL
same,CRE,[5],0.3 mg/dL
same,Ca,[5],10.8 mg/dL
same,Cl,[5],105.6 meq/L
same,DBIL,[5],0.02 mg/dL
same,GLC,[5],191.8 mg/dL
same,IP,[5],6.1 mg/dL
same,K,[5],3.7 meq/L
same,LDH,[5],66.6 IU/L
same,Na,[5],145.2 meq/L
same,PL,[5],148 mg/dL
same,RALB,[5],2.9 g/dL
same,TBIL,[5],0.052 mg/dL
same,TC,[5],63.8 mg/dL
same,TG,[5],156 mg/dL
